The subject of series [1] is SW620 cells. Kind of series: Promoter reporter panel (transient luciferase constructs), SW620. The series is classed as cell-based, human. To be noted: parent SW620, 350 nM, 6 h. As to the method:
Transcription factor activity was assayed in cell lines using 45 different plasmid reporter constructs encoding firefly luciferase under the control of a basal promoter element downstream of specific transcriptional response elements (Qiagen, Germany; Supporting Table S1). Firefly luciferase under the control of basal promoter element alone was used to establish the baseline signal and cotransfection of a construct expressing renilla luciferase from a CMV-promoter was used as a transfection control. Cells were reverse-transfected with reporter plasmids, compounds were added 42 h post transfection and reporter activity quantified following 6 h continuous exposure. […]
multichannel pipette. Where indicated, spheroids were treated at day 4. At days 3, 6 and 8 following compound addition, 50% medium replenishment was performed. Cell-titre Glo analyses were carried out at day 14 for luminescence measurement on a Synergy 2 SL Luminescence microplate reader (BioTek, UK). Values are means ± […]
Single and double knockout clones of human SW620 colon cancer cells lacking CDK8, CDK19 or both kinases were generated using a CRISPR/Cas9 knockout strategy.
Constructs for knockout carried a Cas9 gene, a fluorescent protein gene (GFP for CDK8 and RFP for CDK19) and sgRNAs to human CDK8 […]
Single and double CDK8 and CDK19 knockout clones were generated by transiently transfecting SW620 cells using Lipofectamine 3000 (Thermo Fisher Scientific, UK).
Cells were harvested 72 hours post-transfection and the top 1% GFP, RFP or GFP/RFP positive cells were sorted by FACS into 96 well plates at one cell/well.
Knockout clones were identified by a capillary immunoassay for CDK8 or CDK19 […]
kinase mutant (CDK8D173A)2 were established by transfection of CDK8 CRISPR knockout clone 1 with a pCMV6-CDK8-cMyc-FLAG construct.
Transcription factor promoter reporter assays were carried out to define signalling pathways and biological processes modulated by CDK8/19 ligands. […]
and body weights recorded.

The test system of series [2] is SW620 cells. Description: Tumour spheroid growth assay (CellTitre-Glo), SW620 parent and knockout clones. In kind it is cell-based, human. To be noted: SW620 spheroids.
Series [3] deals with phospho-STAT1^SER727 in SW620 tumor xenografts. Description: Tumor phospho-STAT1 SER727 relative to total STAT1, electrochemiluminescent ELISA. The series is classed as in vivo, mice. To be noted: 6 h after final dose.
Series [4] can be described thus: Plasma total concentration of compound (LC-MS/MS). In kind it is in vivo, mice. The note with it: 6 h after final dose. Here is the method:
for 20 mins at room temperature. […]
and body weights recorded. […]
quantification and pharmacodynamic biomarker analyses. All samples were stored […]
Plasma homogenates were extracted with 3 equivalent volumes of methanol containing olomoucine (500 nM) as an internal standard. Extracts were quantified for […]
ranging from 2 nM to 50 000 nM) with 4 quality control samples (25, 250,2500, and 7500 nM in duplicate) included at the beginning and the end of the analytical run.
Plasma homogenates were measured by LC−MS/MS on a Waters TQS following a separation on a Waters Acquity BEH C18 column (50 mm × 2.1 mm; 1.7 μm) with conditions of 0.1% formic acid (mobile phase A) and methanol (mobile phase B). The column was equilibrated at initial condition of 95% A and 5% B, linear gradient over 3 min to 100% B, held over 1 min, followed by linear gradient back to 5% B over 0.1 min, […]
mode by multiple reaction monitoring, 412.17 > 376.40at 33 eV for compound 109, […]
Phospho-proteome analyses
Adherent COLO205 cells were washed with PBS and cells lysed using urea lysis buffer (9 M Urea, 20 mM HEPES, pH 8.0, 1 mM beta-glycerophosphate, 1 mM sodium vanadate, 2.5 mM sodium pyrophosphate) and stored at -80 °C prior to analysis. The supernatants were reduced with 100 mM DTT for 30 minutes at 55 °C, followed by alkylation with 50 mM iodoacetimide for 15 minutes at ambient temperature in the dark. […]

Series [5] has as its system SW620 human solid tumor xenografts. Description: Antitumor activity in SW620 tumor xenografts (parent and knockout clones). The note with it: 42 mg/kg p.o. qd 5/7 days, 14-20 days.
Protocol: Three separate clones were run for each knockdown condition (n = 7 control or treated mice per group for the parent and each individual clone). Tumors and plasma were collected 6 h after the final dose. For all graphs an ordinary one-way ANOVA with Dunnett’s correction was run to determine significance. […] Each point represents data from a knockout clone.
The establishment, treatment, pharmacokinetic analyses and processing of tumor samples from solid tumor xenografts was performed as described previously previously. , All procedures were performed in accordance with published NCRI guidelines and UK Government Home Office regulations.
The establishment, treatment, pharmacokinetic analysis and processing of tissue
samples from human tumour xenografts was performed as described previously.3,4 All
procedures were performed in accordance with published guidelines and UK
Government Home Office regulations.5 Female athymic nude mice Crl:NU-Foxn1nu
(Charles River Laboratories, US) were acclimatized for 1 week prior to use. Five million
SW620 human colorectal carcinoma cells were injected s.c. in the right flanks of 6–8
weeks old female NCr athymic mice under isofluorothane anesthesia. Therapy was
initiated when established tumours reached a mean volume of 60 mm (day 7). Animals
were randomly assigned into cohorts. Control mice received vehicle (0.5% Methocel,
at 42 mg/kg p.o qd for 5/7 days with a 2-day break after 1 week's dosing.
was prepared 24 h prior to administration to mice by weighing into a glass 30 mL
universal tube, and Methocel solution (0.5% Methocel, 0.25% Tween 20 in sterile
phosphate buffered saline) added to provide a final concentration of 3 mg/mL.
preparation was agitated at room temperature by magnetic stirrer to bring it into a fine
suspension before use. Animals were dosed orally by gavage every 24 h at 0.1 mL
per 10 g body weight. Tumours were measured three times weekly by Vernier calipers and body weights recorded. At the end of the study, day 3 for pharmacodynamic
biomarker analysis and day 14 for anti-tumour therapy experiments, animals were
culled 6 h after the final dose. Heparinized blood was collected by cardiac puncture,
spun, and the plasma snap frozen in liquid nitrogen for analysis of compound
exposure. Tumours were excised, weighed and samples snap frozen for compound
Where [6] appears, read: 14-20 days, 42 mg/kg p.o qd 5/7 days.

These results are taken from PMC12281475, “Mediator Kinase Inhibitor Selectivity and Activity in Colorectal Cancer” (ACS Chemical Biology, 2025).

As for `Cn1cc(-c2ccc(-c3cncc(Cl)c3N3CCC4(CCNC4=O)CC3)cc2)cn1` [CCT251545], in the series on SW620 cells [1], the p53 reporter activity entry is listed as “significant decrease”. Besides, in the series on SW620 cells [1] (mean ± s.e.m), the “AARE promoter reporter activity relative to vehicle control” value was 0.82 ± 0.06 and the “AP1 promoter reporter activity relative to vehicle control” value is listed as 0.78 ± 0.04. In the series with SW620 cells [2], the “spheroid growth of CDK8 and double knockout clones” value is on record as “insensitive to treatment”; the “spheroid growth of CDK19 knockout clones” value is recorded as “growth inhibition similar to the parental line”.
In the case of `Cn1ncc2cc(-c3cnc(N)c(Cl)c3N3CCC4(CCNC4=O)CC3)ccc21` [CCT251921], the “tumor phospho-STAT1 SER727, CDK8/19 clones” value in series [3] (setting [6]) is given as “not”. The “tumor phospho-STAT1 SER727, parent, CDK19 and CDK8 clones” value in series [3] (setting [6]) is listed as “significantly reduced”. Besides, in series [3] (3 days, 42 mg/kg p.o. qd, except CDK8-KO-cl2 (p < 0.05)), the “tumor phospho-STAT1 SER727 levels, CDK8 and CDK8/19 knockouts” value was “no significant change”. For the same molecule, the “tumor phospho-STAT1 SER727 levels, parent and CDK19 clones” value in series [3] (3 days, 42 mg/kg p.o. qd, p < 0.0001) is reported as “significantly reduced”. Moreover, the “plasma total concentrations, parent versus knockout clones” value in series [4] (14-20 days, 42 mg/kg p.o qd 5/7 days, exception CDK8-KO-cl2 (p < 0.05)) is “no significant differences”. For the same molecule, the “plasma levels in parent versus individual knockout clones” value in series [4] (3 days, 42 mg/kg p.o. qd) is reported as “no significant difference”. The “antitumor activity, treated/control (T/C)” value in series [5] (CDK8/19 double knockout SW620 xenografts, p < 0.005) is recorded as 113 ± 10%; in series [5] (CDK8 knockout SW620 xenografts, ± s.e.m.), 59 ± 6%; in series [5] (CDK19 knockout SW620 xenografts) it was 66 ± 3%; in series [5] (parental SW620 xenografts), 63%.
